ChEMBL document CHEMBL5291721, “A preclinical secondary pharmacology resource illuminates target-adverse drug reaction associations of marketed drugs” (Nat Commun, 2023)

Columns and labels:
[1] = target: T1, Alpha-2A adrenergic receptor (Homo sapiens, UniProt P08913); type: functional, cell-based
T1 sequence (P08913 whole entry): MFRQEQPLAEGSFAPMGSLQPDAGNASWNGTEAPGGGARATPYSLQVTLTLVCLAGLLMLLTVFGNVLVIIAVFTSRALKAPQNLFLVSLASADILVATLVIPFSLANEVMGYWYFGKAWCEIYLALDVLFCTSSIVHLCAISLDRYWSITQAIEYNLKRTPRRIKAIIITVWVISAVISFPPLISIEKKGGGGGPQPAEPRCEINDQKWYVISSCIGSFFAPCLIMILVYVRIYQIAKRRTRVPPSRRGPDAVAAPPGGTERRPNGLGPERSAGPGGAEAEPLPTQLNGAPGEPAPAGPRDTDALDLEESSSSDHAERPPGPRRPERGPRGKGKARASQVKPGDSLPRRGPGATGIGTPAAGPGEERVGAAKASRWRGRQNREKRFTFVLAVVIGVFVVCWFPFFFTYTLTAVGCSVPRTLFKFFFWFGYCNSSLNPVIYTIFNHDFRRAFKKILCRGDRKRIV

[2] = target: Kappa-type opioid receptor (Homo sapiens, UniProt P41145)
Kappa-type opioid receptor, sequence (P41145 whole entry): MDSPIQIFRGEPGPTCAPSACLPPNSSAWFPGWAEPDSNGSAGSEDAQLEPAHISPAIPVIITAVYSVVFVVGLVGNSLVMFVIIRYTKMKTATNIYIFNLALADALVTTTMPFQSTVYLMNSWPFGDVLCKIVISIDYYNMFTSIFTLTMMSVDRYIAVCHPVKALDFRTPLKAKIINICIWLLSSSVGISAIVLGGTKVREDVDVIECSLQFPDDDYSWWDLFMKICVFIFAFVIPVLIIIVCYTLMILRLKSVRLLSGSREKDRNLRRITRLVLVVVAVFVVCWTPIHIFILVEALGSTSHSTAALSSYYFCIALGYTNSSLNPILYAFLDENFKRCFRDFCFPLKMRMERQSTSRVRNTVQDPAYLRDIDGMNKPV

[3] = target: Beta-1 adrenergic receptor (Homo sapiens, UniProt P08588); type: functional
Beta-1 adrenergic receptor, sequence (P08588 whole entry): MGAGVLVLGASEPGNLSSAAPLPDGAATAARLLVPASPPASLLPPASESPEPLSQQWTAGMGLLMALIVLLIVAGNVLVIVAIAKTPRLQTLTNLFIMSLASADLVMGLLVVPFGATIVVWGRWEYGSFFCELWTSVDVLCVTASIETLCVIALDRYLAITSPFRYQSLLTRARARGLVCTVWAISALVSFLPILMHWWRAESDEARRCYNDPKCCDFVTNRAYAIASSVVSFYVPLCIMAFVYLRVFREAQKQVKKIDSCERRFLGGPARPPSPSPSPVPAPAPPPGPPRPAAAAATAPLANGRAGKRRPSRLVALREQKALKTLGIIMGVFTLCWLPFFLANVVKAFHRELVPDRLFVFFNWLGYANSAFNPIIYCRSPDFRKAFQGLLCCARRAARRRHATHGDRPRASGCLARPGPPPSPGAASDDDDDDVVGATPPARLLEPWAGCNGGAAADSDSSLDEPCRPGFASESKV

[4] = target: T1, Alpha-2A adrenergic receptor; type: functional, cell-based; remark: listed apart in the source
[5] = target: T2, Muscarinic acetylcholine receptor M2 (Homo sapiens, UniProt P08172); type: functional, cell-based
T2 sequence (P08172 whole entry): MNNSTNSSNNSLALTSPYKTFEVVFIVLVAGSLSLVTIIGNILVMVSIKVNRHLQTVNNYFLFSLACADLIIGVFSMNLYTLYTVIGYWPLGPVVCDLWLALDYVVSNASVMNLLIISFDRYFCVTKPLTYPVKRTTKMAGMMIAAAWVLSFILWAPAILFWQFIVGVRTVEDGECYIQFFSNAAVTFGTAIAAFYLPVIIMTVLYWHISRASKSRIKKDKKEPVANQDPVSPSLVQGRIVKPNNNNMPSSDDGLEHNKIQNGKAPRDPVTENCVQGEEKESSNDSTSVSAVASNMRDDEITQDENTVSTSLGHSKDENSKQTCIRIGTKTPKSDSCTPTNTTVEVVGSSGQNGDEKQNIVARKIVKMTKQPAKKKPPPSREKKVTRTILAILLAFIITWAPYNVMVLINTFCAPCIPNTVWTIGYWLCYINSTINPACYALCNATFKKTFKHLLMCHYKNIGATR

[6] = target: Voltage-dependent L-type calcium channel subunit alpha-1C (Rattus norvegicus, UniProt P22002); type: functional
Voltage-dependent L-type calcium channel subunit alpha-1C, sequence (P22002 whole entry): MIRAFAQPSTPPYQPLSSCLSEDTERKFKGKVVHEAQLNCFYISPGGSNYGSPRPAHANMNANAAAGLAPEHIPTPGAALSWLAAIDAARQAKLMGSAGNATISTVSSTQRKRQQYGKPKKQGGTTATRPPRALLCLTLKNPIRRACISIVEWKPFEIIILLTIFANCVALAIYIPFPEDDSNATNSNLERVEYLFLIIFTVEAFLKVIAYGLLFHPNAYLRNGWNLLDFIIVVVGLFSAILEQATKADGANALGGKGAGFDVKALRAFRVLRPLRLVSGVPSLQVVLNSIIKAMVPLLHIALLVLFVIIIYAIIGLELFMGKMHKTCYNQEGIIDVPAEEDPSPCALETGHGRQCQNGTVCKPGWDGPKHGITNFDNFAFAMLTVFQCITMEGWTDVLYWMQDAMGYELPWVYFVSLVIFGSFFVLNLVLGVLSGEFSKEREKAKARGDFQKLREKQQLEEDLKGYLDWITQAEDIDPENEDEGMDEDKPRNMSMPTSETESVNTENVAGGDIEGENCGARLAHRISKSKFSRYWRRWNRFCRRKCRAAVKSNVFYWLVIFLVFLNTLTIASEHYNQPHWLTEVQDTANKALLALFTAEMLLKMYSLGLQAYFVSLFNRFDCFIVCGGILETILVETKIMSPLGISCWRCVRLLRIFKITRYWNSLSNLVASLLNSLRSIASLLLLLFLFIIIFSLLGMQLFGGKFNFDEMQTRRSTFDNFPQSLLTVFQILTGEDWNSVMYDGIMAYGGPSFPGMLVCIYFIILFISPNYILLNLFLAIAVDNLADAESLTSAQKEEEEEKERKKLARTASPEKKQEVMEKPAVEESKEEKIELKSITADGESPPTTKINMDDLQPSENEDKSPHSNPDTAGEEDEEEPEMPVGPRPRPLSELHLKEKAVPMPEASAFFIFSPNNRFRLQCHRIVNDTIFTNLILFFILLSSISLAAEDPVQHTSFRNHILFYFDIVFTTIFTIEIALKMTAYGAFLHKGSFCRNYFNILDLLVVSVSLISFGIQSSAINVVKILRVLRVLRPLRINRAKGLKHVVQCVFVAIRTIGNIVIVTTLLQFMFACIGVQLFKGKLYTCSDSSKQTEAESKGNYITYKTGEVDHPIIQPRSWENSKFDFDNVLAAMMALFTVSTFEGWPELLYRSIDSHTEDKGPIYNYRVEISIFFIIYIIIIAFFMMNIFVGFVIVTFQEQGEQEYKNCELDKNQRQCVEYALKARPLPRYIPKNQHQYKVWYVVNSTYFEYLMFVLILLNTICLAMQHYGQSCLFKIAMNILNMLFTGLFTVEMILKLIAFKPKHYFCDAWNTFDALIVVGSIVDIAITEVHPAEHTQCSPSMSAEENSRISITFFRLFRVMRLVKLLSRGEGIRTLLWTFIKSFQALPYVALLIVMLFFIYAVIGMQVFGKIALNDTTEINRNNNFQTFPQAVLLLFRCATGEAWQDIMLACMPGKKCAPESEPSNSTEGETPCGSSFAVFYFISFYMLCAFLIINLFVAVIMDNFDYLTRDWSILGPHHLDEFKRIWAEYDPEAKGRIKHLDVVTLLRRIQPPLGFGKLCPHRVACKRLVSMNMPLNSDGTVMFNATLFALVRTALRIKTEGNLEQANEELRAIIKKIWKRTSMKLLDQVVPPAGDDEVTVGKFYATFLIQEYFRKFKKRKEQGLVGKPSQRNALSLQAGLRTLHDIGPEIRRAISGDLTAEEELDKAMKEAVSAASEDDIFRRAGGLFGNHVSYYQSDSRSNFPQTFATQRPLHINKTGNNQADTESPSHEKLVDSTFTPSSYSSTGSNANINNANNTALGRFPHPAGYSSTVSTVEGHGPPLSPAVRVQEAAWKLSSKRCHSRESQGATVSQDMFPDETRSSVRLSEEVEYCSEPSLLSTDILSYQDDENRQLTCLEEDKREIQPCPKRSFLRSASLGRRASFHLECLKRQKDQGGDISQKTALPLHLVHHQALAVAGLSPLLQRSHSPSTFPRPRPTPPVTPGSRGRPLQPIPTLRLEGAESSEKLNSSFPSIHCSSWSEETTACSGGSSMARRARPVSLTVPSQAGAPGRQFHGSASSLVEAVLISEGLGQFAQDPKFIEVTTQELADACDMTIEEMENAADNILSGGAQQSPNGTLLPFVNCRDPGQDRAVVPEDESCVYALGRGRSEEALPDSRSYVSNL

[7] = target: T3, Alpha-1A adrenergic receptor (Homo sapiens, UniProt P35348); type: functional, cell-based
T3 sequence (P35348 whole entry): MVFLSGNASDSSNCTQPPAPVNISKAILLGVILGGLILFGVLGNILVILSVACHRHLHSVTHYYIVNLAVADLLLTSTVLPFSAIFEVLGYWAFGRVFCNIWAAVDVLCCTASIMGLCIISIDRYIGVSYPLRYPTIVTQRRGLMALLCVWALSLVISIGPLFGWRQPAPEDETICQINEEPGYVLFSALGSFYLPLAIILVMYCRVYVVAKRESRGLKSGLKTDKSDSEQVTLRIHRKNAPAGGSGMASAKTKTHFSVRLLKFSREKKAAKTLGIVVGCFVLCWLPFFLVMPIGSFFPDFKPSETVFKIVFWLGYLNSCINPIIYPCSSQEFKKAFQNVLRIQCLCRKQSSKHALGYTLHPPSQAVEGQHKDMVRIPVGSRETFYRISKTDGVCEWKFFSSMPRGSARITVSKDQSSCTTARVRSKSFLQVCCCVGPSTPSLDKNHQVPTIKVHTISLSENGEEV

Glucocorticoid receptor = target: T4, Glucocorticoid receptor (Homo sapiens, UniProt P04150)
T4 sequence (P04150 whole entry): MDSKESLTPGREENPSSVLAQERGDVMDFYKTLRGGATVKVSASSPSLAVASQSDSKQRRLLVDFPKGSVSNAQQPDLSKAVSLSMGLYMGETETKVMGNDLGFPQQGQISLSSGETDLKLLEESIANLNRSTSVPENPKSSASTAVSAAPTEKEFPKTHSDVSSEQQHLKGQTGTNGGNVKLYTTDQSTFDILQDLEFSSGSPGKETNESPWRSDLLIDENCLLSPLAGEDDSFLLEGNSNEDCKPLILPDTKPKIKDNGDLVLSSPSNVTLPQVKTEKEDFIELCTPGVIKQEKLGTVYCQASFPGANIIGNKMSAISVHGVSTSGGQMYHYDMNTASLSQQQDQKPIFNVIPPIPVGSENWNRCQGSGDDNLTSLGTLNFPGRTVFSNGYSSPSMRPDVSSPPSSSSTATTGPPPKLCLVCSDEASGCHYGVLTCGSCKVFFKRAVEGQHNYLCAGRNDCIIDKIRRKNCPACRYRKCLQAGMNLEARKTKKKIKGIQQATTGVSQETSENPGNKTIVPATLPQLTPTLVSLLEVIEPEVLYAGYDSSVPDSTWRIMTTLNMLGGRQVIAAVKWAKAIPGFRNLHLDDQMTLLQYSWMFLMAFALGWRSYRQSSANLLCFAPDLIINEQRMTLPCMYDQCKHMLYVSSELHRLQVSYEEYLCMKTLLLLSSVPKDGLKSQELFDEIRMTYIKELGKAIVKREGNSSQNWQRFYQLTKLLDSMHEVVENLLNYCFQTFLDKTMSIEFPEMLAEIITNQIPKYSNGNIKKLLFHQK

[8] = target: T5, Type-1 angiotensin II receptor (Homo sapiens, UniProt P30556)
T5 sequence (P30556 whole entry): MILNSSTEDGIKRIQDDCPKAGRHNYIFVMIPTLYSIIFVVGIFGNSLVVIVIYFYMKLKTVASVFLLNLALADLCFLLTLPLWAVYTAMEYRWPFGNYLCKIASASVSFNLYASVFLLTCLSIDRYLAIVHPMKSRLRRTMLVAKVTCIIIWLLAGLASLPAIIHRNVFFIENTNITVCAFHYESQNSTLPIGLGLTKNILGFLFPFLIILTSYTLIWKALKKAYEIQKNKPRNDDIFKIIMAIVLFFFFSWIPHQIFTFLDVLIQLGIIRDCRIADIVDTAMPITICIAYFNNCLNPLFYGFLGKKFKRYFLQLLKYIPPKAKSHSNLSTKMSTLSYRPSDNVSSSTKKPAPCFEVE

[9] = target: Voltage-gated inwardly rectifying potassium channel KCNH2 (Homo sapiens, UniProt Q12809); type: functional; details: read-out: AC50
Voltage-gated inwardly rectifying potassium channel KCNH2, sequence (Q12809 whole entry): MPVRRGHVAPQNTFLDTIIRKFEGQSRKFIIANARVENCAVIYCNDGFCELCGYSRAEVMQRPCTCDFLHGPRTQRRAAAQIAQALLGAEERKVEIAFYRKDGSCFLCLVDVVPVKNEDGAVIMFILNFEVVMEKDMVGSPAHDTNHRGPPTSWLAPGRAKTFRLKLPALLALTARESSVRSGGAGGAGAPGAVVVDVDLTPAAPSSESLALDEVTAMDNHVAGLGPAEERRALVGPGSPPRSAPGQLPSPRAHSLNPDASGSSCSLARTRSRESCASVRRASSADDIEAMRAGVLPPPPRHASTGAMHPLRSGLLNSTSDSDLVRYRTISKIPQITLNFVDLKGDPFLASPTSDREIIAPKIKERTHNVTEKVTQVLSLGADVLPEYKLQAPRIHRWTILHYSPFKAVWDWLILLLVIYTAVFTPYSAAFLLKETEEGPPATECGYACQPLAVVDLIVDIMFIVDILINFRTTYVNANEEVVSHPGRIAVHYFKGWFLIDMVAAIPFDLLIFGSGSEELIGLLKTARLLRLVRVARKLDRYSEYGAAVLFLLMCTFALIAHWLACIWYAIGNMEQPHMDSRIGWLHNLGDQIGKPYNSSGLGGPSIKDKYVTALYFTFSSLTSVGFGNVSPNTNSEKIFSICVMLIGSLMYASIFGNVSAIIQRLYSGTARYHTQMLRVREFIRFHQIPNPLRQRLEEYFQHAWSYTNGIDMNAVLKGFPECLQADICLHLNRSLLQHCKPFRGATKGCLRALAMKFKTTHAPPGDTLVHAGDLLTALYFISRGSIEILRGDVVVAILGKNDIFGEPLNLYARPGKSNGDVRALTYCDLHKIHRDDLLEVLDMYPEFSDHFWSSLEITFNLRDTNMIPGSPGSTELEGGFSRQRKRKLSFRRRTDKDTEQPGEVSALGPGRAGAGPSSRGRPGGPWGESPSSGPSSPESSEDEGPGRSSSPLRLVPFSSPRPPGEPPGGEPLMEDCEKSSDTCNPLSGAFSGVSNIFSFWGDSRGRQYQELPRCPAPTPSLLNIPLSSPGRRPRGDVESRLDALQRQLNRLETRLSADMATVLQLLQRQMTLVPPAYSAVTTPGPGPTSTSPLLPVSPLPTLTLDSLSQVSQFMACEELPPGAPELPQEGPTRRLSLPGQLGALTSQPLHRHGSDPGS

[10] = target: Sodium-dependent dopamine transporter (Homo sapiens, UniProt Q01959)
Sodium-dependent dopamine transporter, sequence (Q01959 whole entry): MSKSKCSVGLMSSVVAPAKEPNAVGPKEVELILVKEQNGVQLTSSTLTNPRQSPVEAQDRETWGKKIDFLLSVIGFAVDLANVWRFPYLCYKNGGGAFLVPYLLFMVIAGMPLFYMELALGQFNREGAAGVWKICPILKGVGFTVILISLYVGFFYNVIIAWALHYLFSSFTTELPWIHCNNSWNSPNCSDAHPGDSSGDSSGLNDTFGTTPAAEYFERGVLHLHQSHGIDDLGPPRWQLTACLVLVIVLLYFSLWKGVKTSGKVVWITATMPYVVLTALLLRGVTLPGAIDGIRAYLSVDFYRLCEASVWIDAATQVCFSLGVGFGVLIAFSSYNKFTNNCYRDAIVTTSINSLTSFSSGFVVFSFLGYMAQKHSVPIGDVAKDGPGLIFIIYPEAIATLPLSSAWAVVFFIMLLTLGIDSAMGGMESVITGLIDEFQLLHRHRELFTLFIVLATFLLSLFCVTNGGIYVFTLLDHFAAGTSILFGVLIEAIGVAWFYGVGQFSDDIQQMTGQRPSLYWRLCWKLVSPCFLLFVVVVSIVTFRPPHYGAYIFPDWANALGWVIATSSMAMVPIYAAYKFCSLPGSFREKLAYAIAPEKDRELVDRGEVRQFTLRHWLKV
Also: assay procedure not described here.

SMILES	AC50 [1] [µM]	AC50 [2] [µM]	AC50 [3] [µM]	AC50 [4] [µM]	AC50 [5] [µM]	AC50 [6] [µM]	AC50 [7] [µM]	AC50 (Glucocorticoid receptor) [µM]	AC50 [8] [µM]	AC50 [9] [µM]	AC50 [10] [µM]
Fc1ccc(C(c2ccccc2)(c2ccccc2F)n2ccnc2)cc1 (configuration not stated) [FLUTRIMAZOLE]	> 30	0.93	> 30	> 30	> 30	> 30	> 30	> 30	> 30	1.68	23
C[C@@H]1O[C@@H](O[C@@H]2C=C3CC[C@@H]4[C@H](CC[C@]5(C)[C@@H](c6ccc(=O)oc6)CC[C@]45O)[C@@]3(C)CC2)[C@H](O)[C@H](O)[C@H]1O [PROSCILLARIDIN]	> 30	> 30	> 30	> 30	> 30	> 30	> 30	> 30	> 30	> 30	> 30
